Measured values published in the METLIN SMRT retention time set (Domingo-Almenara et al. 2019).

Assay: gradient 5% acetonitrile 3 min, to 50% in 2 min, to 85% in 15 min, held 3 min, 100 µL/min
Conditions: column: Zorbax Extend-C18 2.1 x 50 mm; eluents: water / acetonitrile, 0.1% formic acid
Method in brief: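 Over 3 months, pure standards in mixtures of ~100 molecules were run by HPLC coupled to a quadrupole time-of-flight mass spectrometer in positive and negative ionization mode. The column was a Zorbax Extend-C18 (2.1 × 50 mm, 1.8 μm) at 100 μL/min, eluted with water and acetonitrile each holding 0.1% formic acid, with 40 μL dead and 900 μL dwell volumes. Retention time was determined from adduct peaks chosen by software and checked manually.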

Row | Compound | RP-LC retention time [s]
1 | O=C(c1ccco1)N1CCCn2nc(-c3ccncc3)cc2C1 | 560
2 | O=C(C1CCN(c2cnn(Cc3ccccc3)c(=O)c2)C1)N1CCCC1 (stereo not given) | 683
3 | COc1cccc(CN2N=C(C(=O)N3CCOCC3)S(=O)(=O)c3ccccc32)c1 | 800
4 | COC(=O)C1=C(C)N(C2CCCC2)C(=O)C1(NC(=O)c1ccccc1OC)C(F)(F)F (stereo not given) | 1070
5 | Cc1nn(CC(=O)NCCCN(C)C2CCCCC2)c(=O)c2nn(-c3ccccc3)c(C)c12 | 634
6 | Cc1ccc(C(=O)NC2CCN(c3nnc4ccccn34)CC2)cc1N1CCCC1=O | 596
7 | CCOC(=O)Cc1ccc(NC(=O)N2CCSc3nc(C)cc(C)c32)cc1 | 735
8 | Cc1oc(C2CCN(S(=O)(=O)c3ccc(C#N)cc3)CC2)nc1C(=O)N1CCOCC1 | 760
9 | CC(=O)N1CCC2(CC1)CC(CC(=O)N(C)C)CCO2 (stereo not given) | 587
10 | COc1ccc(-c2noc(CCc3nnc4ccc(N5CCN(C6CCCCC6)CC5)nn34)n2)cc1 | 646
11 | CN1CCN(C(=O)CSc2nccnc2Sc2ccccc2)CC1 | 637
12 | Cc1ccc(C2Cn3cnc(C(=O)N4CCC(C(=O)NCc5ccc(F)cc5F)CC4)c3CO2)cc1 (stereo not given) | 830
13 | CCc1nnc(-c2ccc3ccn(CC(=O)Nc4cc(OC)c(OC)c(OC)c4)c3c2)o1 | 777
14 | Cc1ccc(NC(=O)CN2C(=O)CCc3cc(Br)ccc32)cc1 | 931
15 | O=C(NC1CCCC1)c1cc2n(n1)CCCN(Cc1ccc(Cl)cc1)C2=O | 890
16 | CC(C)N1CCC2(CC1)N=C(c1ccc3c(c1)OCO3)CC(c1ccccc1O)N2 (stereo not given) | 593
17 | CCn1cc(-c2nc(C(=O)N3CCN(c4ccc(OC)cc4)CC3)cs2)c2cccnc21 | 887
18 | CCCCN(CC)C(=O)c1cc(NC(=O)CC(C)C)cnc1N1CCNCC1 | 632
19 | NC(=O)C1CCN(C(=O)c2snc(-c3ccccn3)c2N)CC1 | 645
20 | Cn1cc(S(=O)(=O)N2CCC(C(=O)NCc3cccnc3)CC2)cc1C(=O)N1CCCC1 | 674
21 | CSc1ccc(CNC(=O)Cn2cnc3nc4c(cc3c2=O)CC(C)CC4)cc1 (stereo not given) | 781
22 | O=C(c1ccnnc1)N1C[C@@H](COCC2CC2)[C@H](c2ccccn2)C1 | 654
23 | CCCN1CCN(CCNC(=O)C2CCCN(c3ncc(-c4cccc(F)c4)cn3)C2)CC1 (stereo not given) | 641
24 | COc1cc2c(cc1OC)C(C(=O)NCCCN1CCN(C)CC1)C(c1cccs1)N(C)C2=O (stereo not given) | 572
25 | O=C(NC1CCCCCC1)C1CCCN(c2nccnc2Oc2ccccc2)C1 (stereo not given) | 1060
26 | Cc1nn(CCCC(=O)N2CCOCC2)c(=O)c2nn(-c3ccccc3)c(C)c12 | 673
27 | CCc1nnc2nc(N3CCN(C(=O)COc4ccc(F)cc4)CC3)cc(C)n12 | 621

Row | Compound | RP-LC retention time [s]
28 | Cc1[nH]c(=O)[nH]c(=O)c1CCc1nnc(SCC(=O)NCc2ccco2)o1 | 566
29 | COc1ccc(C2CCCN2C(=O)c2nn(C)cc2Cl)cc1 (stereo not given) | 770
30 | Cc1nc2cccnc2n1C1CCN(C(=O)Nc2ccc(F)cc2)CC1 | 640
31 | CS(=O)(=O)Nc1ccc(CC(=O)NC2CC2)cc1 | 585
32 | COc1cccc(C(=O)NCC(C)(O)C2CC2)c1OC (stereo not given) | 669
33 | O=C(Nc1ccccc1)C1CCN(S(=O)(=O)c2cc(C(=O)N3CCCCCC3)cs2)CC1 | 896
34 | Oc1ccc(-c2csc(Nc3ccccn3)n2)cc1O | 621
35 | Cc1c(CCC(=O)O)c(C)n2c(nc3ccccc32)c1C#N | 593
36 | O=C(COc1ccccc1F)NCC1CCN(Cc2cccs2)CC1 | 560
37 | COc1ccc(S(=O)(=O)N2CCCC(C(=O)Nc3c(F)cccc3F)C2)cc1OC (stereo not given) | 818
38 | Cc1csc(NC(=O)CSc2ccc(-c3cccs3)nn2)n1 | 750
39 | CNC(=O)c1cc(=O)[nH]c2ccc(F)cc12 | 584
40 | CCCN(C)C(=O)c1cc(=O)[nH]c2ccccc12 | 614
41 | CC(C)c1nnc(-c2coc(S(=O)(=O)N3CCN(c4ccccn4)CC3)c2)o1 | 657
42 | COC1CCC12CCN(C(=O)CNC(C)=O)CC2 (stereo not given) | 607
43 | Cc1cc(C)c2c(N3CCCC3)nc(C(=O)Nc3ccc4c(c3)OCCO4)nc2n1 | 583
44 | CC(C)C(=O)Nc1ccc(C2(C(=O)Nc3ccc(N4CCOCC4)cc3)CCCCC2)cc1 | 888
45 | Cc1ccc(Cn2c(=O)n(CCNC(=O)C(C)C)c3ncccc32)cc1 | 769
46 | Cc1noc(C)c1CC(=O)N1CC(c2noc(C3CCCN3C)n2)C1 (stereo not given) | 594
47 | O=C(NC1CC1)c1ccc(OCC2CCN(C(=O)c3ccc(C(F)(F)F)cc3)CC2)cc1 | 899
48 | CC1=NS(=O)(=O)N(C)C=C1C(=O)OCc1nc(Cc2cccc(C)c2)no1 | 957
49 | CCOC(=O)c1ccc(N2C=C(C#N)S(=O)(=O)c3ccc(F)cc32)cc1 | 972
50 | O=S(=O)(CCCOc1ccc(F)cc1)NC1CC1 | 785
51 | CCOC(=O)[C@@H](C)NC(=O)C1CCN(S(=O)(=O)c2ccc(C)cc2)CC1 | 787
52 | Cc1ccccc1N1CC(C(=O)N(C)C)CC1=O (stereo not given) | 628
53 | Cc1cc(C)cc(NC(=O)C2CCCN2S(=O)(=O)c2cc3c(cc2C)NC(=O)CO3)c1 (stereo not given) | 815
54 | O=C(NCc1cc(F)cc(F)c1)C1CCN(c2cnc(N3CCCC3)nc2)CC1 | 674

Second part, the compound after the results:

Row | RP-LC retention time [s] | Compound
55 | 802 | COc1ccc(NC(=O)N2CCC(n3cnc4ccc(Cl)cc4c3=O)CC2)cc1
56 | 667 | Cc1noc(-c2ccc(=O)n(CC(=O)Nc3ccccc3)c2)n1
57 | 1100 | Cc1cccc(NC(=O)N2CCCC2c2nc(-c3cccc(Cl)c3)no2)c1 (stereo not given)
58 | 1020 | O=C(Nc1nc(-c2nc3ccccc3s2)cs1)c1ccc([N+](=O)[O-])s1
59 | 1350 | Cc1ccc(-c2noc(-c3ccccc3S(=O)(=O)N3CC=C(c4ccccc4)CC3)n2)cc1
60 | 588 | CCN(CC)S(=O)(=O)c1ccc2c(c1)c(=O)c(C(=O)N1CCN(c3ccccn3)CC1)cn2C
61 | 880 | Cc1ccc(NC(=O)Cn2nc3c(Oc4cccc(F)c4)nccn3c2=O)cc1
62 | 1160 | CCn1c(C(=O)NCCc2ccccc2)cc2sc(Cl)cc21
63 | 691 | CCCC(NC(=O)Cc1cccc(F)c1)C(=O)Nc1nc2ccccc2[nH]1 (stereo not given)
64 | 959 | CCCn1c(=O)c(N2CCC(NC(=O)NCc3cccc(F)c3)CC2)nc2ccccc21
65 | 912 | CC1CCN(c2ccc(-c3noc(CN(C)Cc4ccccc4)n3)cn2)CC1
66 | 981 | CC1CCN(c2nc(=O)n(CC(=O)Nc3ccc(C(C)C)cc3)c3ccccc23)CC1
67 | 847 | Cc1ccc(Nc2nc(C(=O)NCc3ccc(C)o3)nc3ccccc23)cc1
68 | 678 | CCCn1c(C)cnc1C1CN(S(=O)(=O)c2ccc(Cl)cc2)C1
69 | 771 | COc1ccc(S(=O)(=O)N2C[C@H]3CN(C(=O)Nc4ccccc4C)C[C@@H](C2)O3)cc1
70 | 687 | O=C(CSc1nc2ccccc2s1)NCCn1nc(-c2ccco2)ccc1=O
71 | 664 | CN1CCN(c2ccc(CNC(=O)C3CCCN(c4nccnc4Oc4ccccc4)C3)cc2)CC1 (stereo not given)
72 | 666 | O=C(Cc1c[nH]c2ncccc12)NCc1ccc(Br)cc1

Row | RP-LC retention time [s] | Compound
73 | 997 | Cc1ccc(C2CC(=O)N(c3ccc(F)c(F)c3)C(=O)C2)cc1
74 | 757 | CCc1ccccc1NC(=O)C1CCN(S(=O)(=O)c2ccc3c(c2)CCCC(=O)N3)CC1
75 | 821 | Cc1ccc(-c2cn3c(CC(=O)Nc4ccc(C#N)cc4)csc3n2)cc1C
76 | 984 | CC(C)CC(=O)NCC(c1ccccc1Cl)c1c[nH]c2ccccc12 (stereo not given)
77 | 733 | Nc1c(C(=O)c2ccccc2)sc2[nH]c(=O)c(C(=O)O)cc12
78 | 1010 | COC(=O)c1cc2ccsc2n1CC(=O)Nc1ccc(F)c(Cl)c1
79 | 885 | CN1c2cc(C(=O)NCCCc3ccccc3)ccc2C(=O)N2CCCCC21 (stereo not given)
80 | 893 | Cc1ccc(-n2c(N3CCCC(C(=O)NCc4ccc(C)o4)C3)nc3ccsc3c2=O)cc1 (stereo not given)
81 | 772 | CN(C)C(=O)c1cc2c(s1)CCC(C(=O)Nc1ccccc1)C2 (stereo not given)
82 | 1010 | COc1ccc(-c2noc(C3CCCN3C(=O)Nc3ccccc3C(F)(F)F)n2)cc1 (stereo not given)
83 | 1030 | Cc1ccc(-c2noc(CN3C(=O)COc4ccccc43)n2)cc1
84 | 1020 | Cc1ccc(-c2noc(CSc3nccn3-c3ccc(C)cc3)n2)cc1
85 | 817 | O=C(Cn1ccn2nc(-c3ccccc3)cc2c1=O)NCc1ccccc1Cl
86 | 806 | O=C(CCC1CCCN(C(=O)Nc2ccccc2)C1)NCc1cccc(F)c1 (stereo not given)
87 | 944 | Cc1c(Cl)cccc1S(=O)(=O)N1CCCN(c2ccc(=O)n(-c3ccccc3)n2)CC1
88 | 570 | Cc1cc(=O)n(CC(=O)NCc2ccccc2)c(N)n1
89 | 1000 | CCc1nn2c(CNS(=O)(=O)c3ccc(Cl)cc3)c(-c3ccccc3)nc2s1
90 | 859 | COc1ccc(NC(=O)Cn2nc3c(Oc4ccccc4Cl)nccn3c2=O)cc1
